Experiments:
HDAC = HDAC fluorimetric assay kit (AK-500, Biomol), HeLa nuclear extract; type: biochemical
Experimental: HDAC inhibitors were screened using an HDAC fluorimetric assay kit (AK-500, Biomol, Plymouth Meeting, Pa.). […] Each assay was setup as follows: Defrosted all kit components and kept on ice until use. […] Prepared dilutions of Trichostatin A (TSA, positive control) and tested compounds in assay buffer (5× of final concentration). Diluted Fluor de Lys™ Substrate in assay buffer to 100 uM (50 fold=2× final). Diluted Fluor de Lys™ developer concentrate 20-fold (e.g. 50 μl plus 950 μl Assay Buffer) in cold assay buffer. Second, diluted the 0.2 mM Trichostatin A 100-fold in the 1× Developer (e.g. 10 μl in 1 ml; final Trichostatin A concentration in the 1× Developer=2 μM; final concentration after addition to HDAC/Substrate reaction=1 μM). Added Assay buffer, diluted trichostatin A or test inhibitor to appropriate wells of the microtiter plate. Added diluted HeLa extract or other HDAC sample to all wells except for negative controls.

human EGFR = molecular target: T1, human EGFR (Homo sapiens, UniProt P00533); assay: HTScan Receptor Kinase Assay, EGFR; type: biochemical
T1 construct: human EGFR (His672-Ala1210); GST (N); purchased Cell Signaling Technologies; host or cells: baculovirus expression system

human VEGFR2 = human VEGFR2 (Homo sapiens, UniProt P35968); assay: HTScan Receptor Kinase Assay, VEGFR2;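 note: recombinant GST-His-tagged human VEGFR2 kinase domain phosphorylating biotinylated gastrin precursor peptide, 30 min at room temperature, phosphotyrosine detected by Europium-labelled antibody time-resolved fluorescence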
human HER2/ErbB2 = human HER2/ErbB2 (Homo sapiens, UniProt P04626); assay: HTScan Receptor Kinase Assay, HER2/ErbB2;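 note: europium time-resolved fluorescence detection of anti-phosphotyrosine antibody binding to biotinylated FLT3 (Tyr589) peptide phosphorylated by the kinase, 30 min reaction at room temperature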
Chain of human HER2/ErbB2 (P04626 676-1255): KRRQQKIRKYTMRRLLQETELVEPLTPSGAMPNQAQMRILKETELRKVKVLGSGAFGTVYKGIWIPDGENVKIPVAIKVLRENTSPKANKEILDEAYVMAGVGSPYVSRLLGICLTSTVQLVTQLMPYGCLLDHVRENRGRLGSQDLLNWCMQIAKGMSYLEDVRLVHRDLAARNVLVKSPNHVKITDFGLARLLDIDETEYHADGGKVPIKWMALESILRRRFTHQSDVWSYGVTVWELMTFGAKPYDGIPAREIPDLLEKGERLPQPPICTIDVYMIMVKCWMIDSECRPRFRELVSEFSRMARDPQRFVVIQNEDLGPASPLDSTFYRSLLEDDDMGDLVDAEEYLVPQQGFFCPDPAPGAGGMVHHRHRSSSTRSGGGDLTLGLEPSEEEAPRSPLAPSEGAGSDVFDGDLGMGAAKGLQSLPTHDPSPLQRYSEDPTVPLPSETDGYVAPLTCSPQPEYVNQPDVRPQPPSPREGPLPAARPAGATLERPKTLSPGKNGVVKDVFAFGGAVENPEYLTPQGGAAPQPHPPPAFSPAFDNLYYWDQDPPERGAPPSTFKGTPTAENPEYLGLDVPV

T1 sequence (P00533 672-1210): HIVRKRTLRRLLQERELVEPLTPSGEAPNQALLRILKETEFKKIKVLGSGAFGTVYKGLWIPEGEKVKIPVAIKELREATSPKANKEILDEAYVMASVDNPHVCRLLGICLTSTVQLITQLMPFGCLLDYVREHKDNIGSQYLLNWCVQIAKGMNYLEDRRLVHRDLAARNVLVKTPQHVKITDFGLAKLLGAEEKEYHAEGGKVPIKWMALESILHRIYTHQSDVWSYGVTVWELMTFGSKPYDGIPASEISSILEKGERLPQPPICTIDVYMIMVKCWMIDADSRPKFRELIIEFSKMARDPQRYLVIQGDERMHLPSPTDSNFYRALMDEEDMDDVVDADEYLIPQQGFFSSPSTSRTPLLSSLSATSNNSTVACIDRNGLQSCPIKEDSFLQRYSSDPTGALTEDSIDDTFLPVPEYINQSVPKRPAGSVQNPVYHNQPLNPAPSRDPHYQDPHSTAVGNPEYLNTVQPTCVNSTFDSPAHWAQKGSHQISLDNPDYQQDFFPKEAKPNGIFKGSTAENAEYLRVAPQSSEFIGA
Chain of human VEGFR2 (P35968 807-1356 limits assumed): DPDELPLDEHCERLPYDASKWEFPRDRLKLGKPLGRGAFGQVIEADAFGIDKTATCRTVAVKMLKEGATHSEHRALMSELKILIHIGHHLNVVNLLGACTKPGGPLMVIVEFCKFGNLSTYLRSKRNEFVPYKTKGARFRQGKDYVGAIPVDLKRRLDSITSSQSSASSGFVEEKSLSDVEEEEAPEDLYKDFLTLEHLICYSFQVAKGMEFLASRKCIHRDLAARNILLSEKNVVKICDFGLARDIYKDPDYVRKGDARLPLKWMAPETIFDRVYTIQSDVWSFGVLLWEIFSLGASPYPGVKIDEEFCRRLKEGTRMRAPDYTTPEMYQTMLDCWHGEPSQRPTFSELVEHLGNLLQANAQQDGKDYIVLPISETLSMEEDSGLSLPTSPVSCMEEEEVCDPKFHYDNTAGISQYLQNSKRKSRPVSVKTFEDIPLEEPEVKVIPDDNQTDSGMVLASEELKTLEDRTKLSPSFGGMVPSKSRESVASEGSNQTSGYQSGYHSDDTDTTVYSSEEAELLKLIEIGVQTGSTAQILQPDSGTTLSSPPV

| IC50 (HDAC) | IC50 (human EGFR) | IC50 (human VEGFR2) | IC50 (human HER2/ErbB2) | melting point | SMILES |
| --- | --- | --- | --- | --- | --- |
| < 100 nM | < 100 nM | 100 to 1000 nM | 100 to 1000 nM |  | C[C@@H](Nc1ncnc2[nH]c(-c3ccc(NC(=O)CCCCC(=O)NO)cc3)cc12)c1ccccc1 [Compound 26, (R) —N^1-Hydroxy-N^6-(4-(4-(1-phenylethylamino)-7H-pyrrolo[2,3-d]pyrimidin-6-yl)phenyl)adipamide] |
| 100 to 1000 nM | < 100 nM | 1000 to 10000 nM | 100 to 1000 nM |  | O=C(NO)c1ccc(-c2cc3c(NCc4ccccc4)ncnc3[nH]2)cc1 [Compound 40] |
| < 100 nM | < 100 nM | 100 to 1000 nM | < 100 nM |  | C[C@@H](Nc1ncnc2[nH]c(-c3ccc(NCCCCCCC(=O)NO)cc3)cc12)c1ccccc1 [Compound 67, (R)—N-hydroxy-7-(4-(4-(1-phenylethylamino)-7H-pyrrolo[2,3-d]pyrimidin-6-yl)phenylamino)heptanamide] |
| < 100 nM | 100 to 1000 nM | 1000 to 10000 nM | 1000 to 10000 nM |  | O=C(CCCCCCOc1ccc(-c2cc3c(NCc4ccccc4)ncnc3[nH]2)cc1)NO [Compound 38, 7-(4-(4-(benzylamino)-7H-pyrrolo[2,3-d]pyrimidin-6-yl)phenoxy)-N-hydroxyheptanamide] |
| < 100 nM | < 100 nM | < 100 nM | 100 to 1000 nM |  | C[C@@H](Nc1ncnc2[nH]c(-c3ccc(OCCCCCCC(=O)NO)cc3)cc12)c1ccccc1 [Compound 22, (R)—N-hydroxy-7-(4-(4-(1-phenylethylamino)-7H-pyrrolo[2,3-d]pyrimidin-6-yl)phenoxy)heptanamide] |
| > 10000 nM | < 100 nM | 100 to 1000 nM | 100 to 1000 nM |  | C[C@@H](Nc1ncnc2[nH]c(-c3ccc(NC(=O)CCC(=O)NO)cc3)cc12)c1ccccc1 [Compound 24, (R) —N^1-Hydroxy-N^4-(4-(4-(1-phenylethylamino)-7H-pyrrolo[2,3-d]pyrimidin-6-yl)phenyl)succinamide] |
| 100 to 1000 nM | < 100 nM | 100 to 1000 nM | 100 to 1000 nM |  | C[C@@H](Nc1ncnc2[nH]c(-c3ccc(C(=O)NCCNCCCCCC(=O)NO)cc3)cc12)c1ccccc1 [Compound 30, (R)—N-(2-(6-(Hydroxyamino)-6-oxohexylamino)ethyl)-4-(4-(1-phenylethylamino)-7H-pyrrolo[2,3-d]pyrimidin-6-yl)benzamide] |
| < 100 nM | 100 to 1000 nM | 1000 to 10000 nM | 100 to 1000 nM |  | C[C@@H](Nc1ncnc2[nH]c(-c3ccc(OCCCCCCC(=O)NO)cc3)cc12)c1ccc(F)cc1 [Compound 37] |
| 100 to 1000 nM | < 100 nM | 100 to 1000 nM | 100 to 1000 nM |  | C[C@@H](Nc1ncnc2[nH]c(-c3ccc(OCCCCC(=O)NO)cc3)cc12)c1ccccc1 [Compound 20, (R)—N-Hydroxy-5-(4-(4-(1-phenylethylamino)-7H-pyrrolo[2,3-d]pyrimidin-6-yl)phenoxy)pentanamide] |
| < 100 nM | < 100 nM | 100 to 1000 nM | 100 to 1000 nM |  | C[C@@H](Nc1ncnc2[nH]c(-c3ccc(NC(=O)CCCCCCC(=O)NO)cc3)cc12)c1ccccc1 [Compound 27, (R)—N^1-Hydroxy-N^8-(4-(4-(1-phenylethylamino)-7H-pyrrolo[2,3-d]pyrimidin-6-yl)phenyl)octanediamide] |
| 100 to 1000 nM | 100 to 1000 nM | 100 to 1000 nM | 100 to 1000 nM |  | O=C(CCCCCN1CCN(Cc2ccc(-c3cc4c(NCc5ccccc5)ncnc4[nH]3)cc2)CC1)NO [Compound 36] |
| < 100 nM | < 100 nM | 1000 to 10000 nM | 100 to 1000 nM |  | C[C@@H](Nc1ncnc2[nH]c(-c3ccc(OCCCCCC(=O)NO)cc3)cc12)c1ccccc1 [Compound 21, (R)—N-hydroxy-6-(4-(4-(1-phenylethylamino)-7H-pyrrolo[2,3-d]pyrimidin-6-yl)phenoxy)hexanamide] |
| 100 to 1000 nM | < 100 nM | < 100 nM | < 100 nM |  | C[C@@H](Nc1ncnc2[nH]c(-c3ccc(OCCNCCCCCCC(=O)NO)cc3)cc12)c1ccccc1 [Compound 60, (R)—N-hydroxy-7-(2-(4-(4-(1-phenylethylamino)-7H-pyrrolo[2,3-d]pyrimidin-6-yl)phenoxy)ethylamino)heptanamide] |
| 100 to 1000 nM | < 100 nM | 100 to 1000 nM | 100 to 1000 nM |  | C[C@@H](Nc1ncnc2[nH]c(-c3ccc(OCCCC(=O)NO)cc3)cc12)c1ccccc1 [Compound 19, (R)—N-Hydroxy-4-(4-(4-(1-phenylethylamino)-7H-pyrrolo[2,3-d]pyrimidin-6-yl)phenoxy)propanamide] |
| > 10000 nM | 100 to 1000 nM | 100 to 1000 nM | 100 to 1000 nM |  | C[C@@H](Nc1ncnc2[nH]c(-c3ccc(C(=O)NCCNCC(=O)NO)cc3)cc12)c1ccccc1 [Compound 28, (R)—N-(2-(2-(Hydroxyamino)-2-oxoethylamino)ethyl)-4-(4-(1-phenylethylamino)-7H-pyrrolo[2,3-d]pyrimidin-6-yl)benzamide] |
| 100 to 1000 nM | < 100 nM | 1000 to 10000 nM | 1000 to 10000 nM |  | C[C@@H](Nc1ncnc2[nH]c(-c3ccc(NCc4ccc(/C=C/C(=O)NO)cc4)cc3)cc12)c1ccccc1 [Compound 42, (R,E)-N-Hydroxy-3-(4-((4-(4-(1-phenylethylamino)-7H-pyrrolo[2,3-d]pyrimidin-6-yl)phenylamino)methyl)phenyl)acrylamide] |
| < 100 nM | < 100 nM | 100 to 1000 nM | 100 to 1000 nM |  | C[C@@H](Nc1ncnc2[nH]c(-c3ccc(CNCCCCCCC(=O)NO)cc3)cc12)c1ccccc1 [Compound 33, (R)—N-hydroxy-7-(4-(4-(1-phenylethylamino)-7H-pyrrolo[2,3-d]pyrimidin-6-yl)benzylamino)heptanamide] |
| < 100 nM | < 100 nM | 100 to 1000 nM | 100 to 1000 nM |  | C[C@@H](Nc1ncnc2[nH]c(-c3ccc(C(=O)NCCNCCC(=O)NO)cc3)cc12)c1ccccc1 [Compound 29, (R)—N-(2-(3-(Hydroxyamino)-3-oxopropylamino)ethyl)-4-(4-(1-phenylethylamino)-7H-pyrrolo[2,3-d]pyrimidin-6-yl)benzamide] |
| < 100 nM | < 100 nM | 1000 to 10000 nM | < 100 nM | 116.8 to 126.8 °C | C[C@@H](Nc1ncnc2[nH]c(-c3ccc(OCC(=O)NO)cc3)cc12)c1ccccc1 [Compound 17, (R)—N-hydroxy-2-(4-(4-(1-phenylethylamino)-7H-pyrrolo[2,3-d]pyrimidin-6-yl)phenoxy)acetamide] |
| 100 to 1000 nM | < 100 nM | 100 to 1000 nM | 100 to 1000 nM |  | C[C@@H](Nc1ncnc2[nH]c(-c3ccc(C(=O)NO)cc3)cc12)c1ccc(F)cc1 [Compound 41] |
| 100 to 1000 nM | < 100 nM | 100 to 1000 nM | < 100 nM |  | C[C@@H](Nc1ncnc2[nH]c(-c3ccc(CN4CCN(CCCCCCC(=O)NO)CC4)cc3)cc12)c1ccccc1 [Compound 16, (R)—N-Hydroxy-7-(4-(4-(4-(1-phenylethylamino)-7H-pyrrolo[2,3-d]pyrimidin-6-yl)benzyl)piperazin-1-yl)heptanamide] |
